Experimental data as given in patent US8552013B2, “Heterocyclic compounds based on N6-substituted adenine, methods of their preparation, their use for preparation of drugs, cosmetic preparations and growth regulators, pharmaceutical preparations, cosmetic preparations and growth regulators containing these compounds” (USTAV Experimentalni Botaniky Akademie Ved Ceske Republiky, priority 2001, dated 2013).
“Also recorded” adds a separate entry of the source.

Key:
[1] = tested on: HOS; test: Calcein AM cytotoxicity, HOS; type: cell-based; conditions: Homo sapiens, HOS, 72 h
[2] = tested on: Rosa hybrida (pot rose cultivar) explants; test: In vitro and post vitro shoot multiplication and rooting of rose; type: in vivo
Method: The aim of this experiment was to test whether the new compounds are of practical use in tissue culture practice. The multiplication rate was investigated and the post vitro effects on rooting were examined. Rosa hybrida (pot rose cultivar) was cultured in 350 ml vessels with a screw on polycarbonate lid. Each culture vessel contained 100 ml autoclaved medium (120° C., 20 min). The cultures were maintained at 23±2° C. under a 16 h photoperiod at 40 μM m^−2 s^−1 PAR. The basal medium (BMR) contained Murashige and Skoog (1962) macroelements, microelements and vitamins, 95 μM NaFeEDTA, 555 μM myo-inositol, 111 mM sucrose, 1.332 mM glycine, 684 μM L-glutamine and 7 g/l agar. This medium was supplemented with 10 μM BA, mT, oMeOBAP or mMeOBAP (compound no. 14 and 15, respectively). The control medium didn't contain any cytokinin. After a culture period of 8 weeks, the number of induced shoots per explant was determined, as well as root number/explant and total root length/explant. The roots were removed and the explants (shoot clusters) were planted in unfertilised peat. After four weeks of acclimatising in a fog unit, root number and root length was determined.

[3] = tested on: Rosa hybrida 'Pailin' explants; test: Early shoot senescence of tissue cultured roses; type: in vivo; conditions: 10 μM in medium
Method: Rosa hybrida ‘Pailin’ (a cut rose) was cultured in 350 ml vessels with a screw on polycarbonate lid. Each culture vessel contained 100 ml autoclaved medium (120° C., 20 min). The cultures were maintained at 23±2° C. under a 16 h photoperiod at 40 μM m^−2 s^−1 PAR. The basal medium (BMR) contained Murashige and Skoog (1962) macroelements, microelements and vitamins, 36.7 mg/l NaFeEDTA, 50 mg/l NaFeEDDHA, 100 mg/l […] myo-inositol, 30 g/l sucrose, 100 mg/l glycine, 50 mg/l calcium pantothenate, 100 mg/l L-glutamine and 7 g/l agar-agar. This medium was supplemented with 10 μM BA, mT and mMeOBAP. The last 2 cytokinins were filter sterilised and added after autoclaving the medium in the vessels. The control medium didn't contain any cytokinin. After a culture period of 6 weeks, scoring senescence symptoms was started.

[4] = tested on: human skin fibroblasts; test: Cell attachment of human skin fibroblasts; type: cell-based
Method: All experiments were performed on early and mid passage cultures (about 20 to 40% lifespan completed) of normal human adult skin fibroblast line; designated ASF-2 & Senetek cell line (about 10-90% lifespan completed); designated as SF20. In order to check the effects of test compounds on senescent cells, late passage cells with more than 95% lifespan completed were used. ASF-2 and SF20 cell lines were established from a mammary skin biopsy obtained from a young, non-smoking and healthy […] at the time of breast reduction operation. Normal culture conditions of medium (DMEM) containing antibiotics, 10% foetal calf serum, and incubation at 37° C. with 95% humidity were used. The effects of the test chemicals were determined in the following conditions: […]

[5] = tested on: human adult skin fibroblasts; test: Short-term growth of human skin fibroblasts (cell counts, Giemsa); type: cell-based
Method: (§1) All experiments were performed on early and mid passage cultures (about 20 to 40% lifespan completed) of normal human adult skin fibroblast line; designated ASF-2 & Senetek cell line (about 10-90% lifespan completed); designated as SF20. In order to check the effects of test compounds on senescent cells, late passage cells with more than 95% lifespan completed were used. ASF-2 and SF20 cell lines were established from a mammary skin biopsy obtained from a young, non-smoking and healthy […] at the time of breast reduction operation. Normal culture conditions of medium (DMEM) containing antibiotics, 10% foetal calf serum, and incubation at 37° C. with 95% humidity were used. The effects of the test chemicals were determined in the following conditions:
Short-term growth experiments were performed using 24-well tissue culture plates (growth area 1.9 cm^2). Freshly prepared cell suspensions from mass cultures of ASF-2 cells maintained in our labs were used. About 10,000 cells were seeded into 6 sets of 24-well plates. The cells were allowed to attach and stabilize for 24 hr in normal culture medium to achieve various final concentrations (range 40 to 500 μM). Culture medium was changed with the addition of test chemicals twice a week. The numbers of cells were counted after different days of treatment in 2 wells from each concentration of the test chemical, by following the normal method of cell trypsinization and counting using a Coultercounter. The third well in each category was fixed by cold methanol and stained with Giemsa stain for permanent record and for photography. The experiment was carried on for until the cultures became fully confluent and no further growth was possible.

[6] = tested on: human skin fibroblasts; test: Cell survival, MTT assay; type: cell-based; conditions: 3 days
Method: Cell survival after exposure to various doses was measured with the 3-(4,5 dimethylthiazol-2-yl)-2,5-diphenyltetrazolium bromide (MTT) assay. About 5,000 cells were seeded per well in a 96-well plate 24 h before the experiment. Cells were then treated with various doses of the compound to be tested. The wells were washed in Hank's and new medium was added. After three days, MTT (Sigma, M2128) was added at 0.5 mg/ml in medium. After 4 h, MTT was removed and isopropanol and HCl were added to dissolve the MTT crystals for 12-16 h. The absorbance at 595 nm was measured.

[7] = tested on: lysosomes of fibroblast cells; test: Lysosomal activity, neutral red uptake; type: cell-based, human
Method: Neutral Red is preferentially taken up into the lysosomes of the cell. Fibroblast cells are maintained in culture and exposed to test compounds over a range of concentrations. The cultures are visually examined after 72 hours, and the number of viable cells and/or the total cell protein content determined, after 72 hours exposure, by the Neutral Red Uptake method. Advantage of Neutral Red assay is that it detects only viable cells. Any chemical having a localized effect upon the lysosomes will, therefore, result in an artificially low (or possibly high) reflection of cell viability and cell number. This factor does, however, make the system useful to detect those compounds which selectively affect the lysosomes, especially when it is used in conjunction with other tests capable of determining cell number.
The NR assay has been applied to evaluation and ranking the cytotoxicity of a spectrum of compounds. Individual wells of a 96-well tissue culture microtiter plate were inoculated with 0.2 ml of the appropriate media containing cells (usually 3×10^3 cells). After 1 to 2 days of incubation, the media were removed and replaced with unamended (control) medium or with medium amended with varied concentrations of the compound to be tested. After 3 days of exposure to the compound, media were removed and replaced with media containing 0.001% NR. The assay plate was then returned to the incubator for another 3 h to allow for uptake of the supravital dye into the lysosomes of viable cells. Thereafter, the media were removed and the cells were rapidly washed with 0.5% formaldehyde-1% CaCl2 followed by 0.2 ml of a solution of 1% acetic acid-50% ethanol to extract the dye from the cells. After 10 min at room temperature and a brief but rapid agitation on a microtiter plate shaker, the plates were transferred to a microplate spectrophotometer equipped with a 540-nm filter to measure the absorbance of the extracted dye.
The toxicities of the various compounds were compared with those of the control cultures by computing the data obtained.

[8] = tested on: proteasome; test: Proteasomal chymotrypsin-like activity in cell extracts of treated cells; type: cell-based, human; conditions: 40, 80 and 200 μM
Method: Chymotrypsin-like activity in cell extracts prepared from treated and untreated cells was determined by in vitro degradation of oligopeptides by the proteasome.

[9] = tested on: senescent human skin fibroblasts; test: Actin staining of senescent cells (FITC-Phalloidin); type: cell-based; conditions: after 3 days; meta 40 μM
From the text: Actin staining: The pattern of cytoskeletal actin staining was studied by staining the cells with florescent ligand FITC-labelled Phalloidin, using a fluorescence microscope

[10] = tested on: senescent human skin fibroblasts; test: Morphology of senescent cells; type: cell-based
Method: as §1
Senescent human skin fibroblasts were treated with various doses of para-topolin to see if this treatment could reverse age-related alterations in their morphology. […] The cells progressively became heterogeneous with large and flattened appearance.

[11] = tested on: senescent human skin fibroblasts; test: Numbers of surviving senescent cells (Coulter counter); type: cell-based
Method: Equal numbers of senescent cells were seeded in separate flasks and were treated with different concentrations of para-topolin. Cell numbers were determined by using a Coulter counter after trpsinization and resuspension of cells after 7 and 14 days of treatment.
Equal numbers of senescent cells were seeded in separate flasks and were treated with different concentrations of ortho-topolin. Cell numbers were determined by using a Coulter counter after trypsinisation and resuspension of cells, after 7 and 14 days of treatment.

[12] = tested on: human skin fibroblasts; test: beta-galactosidase staining of treated skin fibroblasts; type: cell-based; conditions: short-term growth treatment
[13] = tested on: human skin fibroblasts; test: Series of experiments on short-term effects on human skin fibroblasts, conclusion; type: cell-based; conditions: para at a dose of 40 μM
Method: as §1
The experiments were performed to determine the effects of short-term treatment of ortho-topolin, meta-topolin, and para-topolin on cell attachment, survival, growth, apoptosis, actin cytoskeletal pattern, lysosomal activity, proteasomal activity and morphology of human skin fibroblasts in culture.

[14] = Ex vitro, four weeks of acclimatising

c1ccc(CNc2ncnc3nc[nH]c23)cc1 [BAP, 6-benzylaminopurine, reference compound]
IC50 [1]: > 167 µM | shoot multiplication and rooting, in words ([2]; 10 μM): high shoot multiplication rate, but the shoots rooted badly | Root number per plant [2, 14]: 0.6 | Total root length per plant [2, 14]: 1.1 cm | Flower number per explant ([2]; In vitro, 10 μM, 8 weeks): 0.00 | Number of new shoots per explant ([2]; In vitro, 10 μM, 8 weeks): 3.8 | Root number per explant ([2]; In vitro, 10 μM, 8 weeks): 0.0 | Total root length per explant ([2]; In vitro, 10 μM, 8 weeks): 0.0 cm | relative number of dead plants in relation to culture time [3]: looks like a sigmoid curve

Oc1ccc(CNc2ncnc3nc[nH]c23)cc1 [para-topolin, 6-(4-hydroxybenzylamino)purine]
Percent of cells attached, effect in words ([4]; 6 hours, para 40 μM to 1 mM, ortho 40 to 400 μM, meta 40 to 200 μM): not affected to any significant extent | Overall cell attachment improved (summary) ([4]; para at 40, 80, 100, 160, 250 and 500 μM): 10-40% | Cell growth (summary) ([5]; 40 μM): not affected | Cell growth lower ([5]; 40 μM): 10% | reduction of cell growth ([5]; 80 μM): over 40% | appearance of dermal cells, microscopic examination (summary) ([5]; 40 and 80 μM): Healthy appearances of the cells were maintained | Cell growth (summary) ([5]; 80, 200 and 500 μM): reduced | appearance of dermal cells, microscopic examination (summary) ([5]; 200 and 500 μM): toxic effects with enlargement in cell sizes | appearance of cells ([5]; 200 and 500 μM, eleven days): large in appearance, irregularly arranged and few in numbers | dose over which cytotoxicity of cells was seen ([5]; Giemsa pictures after eleven days): > 80 µM | Cellular growth at higher concentrations ([5]; para 200 to 500 μM after 11 days, ortho 200 and 400 μM after 7 days, meta 400 μM): almost a total inhibition | reduction in cell survival ([6]; 200-500 μM): 15-25% | dose until which not cytotoxic / no toxic effect on survival (MTT) ([6]; range 0.01-500 μM): 100 µM | neutral red staining pattern of cells ([7]; 40 μM-500 μM): autophagy | reduction in the macro-molecular turn over rate ([7]; 80 & 200 μM): 10-15% | proteasomal activity (chymotrypsin-like), removal of oxidized and abnormal proteins [8]: slight improvement; also recorded: observed in a dose dependent manner | actin staining pattern in senescent cells [9]: no obvious differences | appearance of senescent cells on longer treatment ([10]; 14 days, ortho and meta 80 μM and above): began to shrink and die | appearance of senescent cells ([10]; after 7 days of treatment (para: 7 days and 14 days; meta: low concentrations)): subtle differences | growth of senescent cells ([11]; 200 μM, 7 to 14 days): no further growth of the cells was observed | numbers of surviving senescent cells ([11]; 7 to 14 days of treatment): tolerant to para-topolin until 80 μM | number of prematurely senescent cells, beta-galactosidase staining [12]: did not show any increase | conclusion on short-term effects on human skin fibroblasts [13]: beneficial anti-aging effects
